From article PMC9304066, “H2S biogenesis by cystathionine beta-synthase: mechanism of inhibition by aminooxyacetic acid and unexpected role of serine” (Cellular and Molecular Life Sciences: CMLS, 2022)
Several values for one entry are separate records, joined by “and”; a condition that tells them apart may be missing. Equal entries are not always repeated.

How the values were obtained:
tScCBS = target: T1, tScCBS (Saccharomyces cerevisiae, UniProt P32582); test: Kinetics of AOAA binding to tScCBS and displacement by substrate, followed by absorption spectra
T1 construct: 6xHis (C); made in house
T1 sequence (P32582 1-345): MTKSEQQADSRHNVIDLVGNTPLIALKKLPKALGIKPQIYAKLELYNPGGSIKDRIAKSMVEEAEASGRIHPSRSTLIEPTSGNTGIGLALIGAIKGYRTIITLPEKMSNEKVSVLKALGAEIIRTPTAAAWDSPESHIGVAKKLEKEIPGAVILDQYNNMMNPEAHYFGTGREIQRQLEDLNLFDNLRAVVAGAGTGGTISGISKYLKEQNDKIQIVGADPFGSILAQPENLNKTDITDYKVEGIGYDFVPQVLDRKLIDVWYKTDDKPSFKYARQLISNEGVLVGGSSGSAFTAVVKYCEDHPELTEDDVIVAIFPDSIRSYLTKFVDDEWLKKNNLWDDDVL
Description: UV − Vis and fluorescence spectroscopy. Absorption spectra were collected on a Tecan Infinite M200 Pro spectrophotometer in a buffer containing 50 mM Tris–HCl pH 8.5, 20 mM NaCl and 0.5 mM tris(2-carboxyethyl)phosphine (TCEP). All the spectra were carried out with a protein concentration of 1 mg/mL with a 1 cm path-length quartz cuvette in a total volume of 150 µL. tScCBS was titrated directly in a cuvette by successive additions of different concentrations of AOAA, Ser and Cys, respectively, and spectra were recorded between 240 and 600 nm after an incubation time of 3 min at RT. Fluorescence emission spectra were collected under the same conditions upon PLP excitation at 410 nm. Blank spectra were subtracted from sample spectra.
Fig. 2 Spectroscopic rescue of AOAA-inhibited tScCBS by Ser. A Changes in the absorption spectra of tScCBS upon addition of 20 µM AOAA (cyan lines) followed for 1 h. Subsequently, 1 mM Ser (gray lines) was added and spectral changes were followed for additional 1 h. B Representative kinetic fitting of AOAA binding to tScCBS followed at 412 nm. C Representative kinetic fitting of AOAA displacement from tScCBS by Ser by following changes at 370 nm and 460 nm. The kinetic parameters of the observed processes are shown as insets in panels B and C. Far-UV (D) and near-UV (E) CD spectra of tScCBS (black), tScCBS complexed with 20 µM AOAA (cyan) or 1 mM Ser (magenta) and tScCBS complexed with 20 µM AOAA followed by 1 h incubation with 1 mM Ser (green).

HsCBS = target: T2, HsCBS (Homo sapiens, UniProt P35520, DEL516-525); test: CBL-LDH coupled-coupled CBS assay, HsCBS; assay type: biochemical; settings: for Reduction of activity catalyzing condensation of Cys and Hcy yielding H2S: AOAA-inhibited HsCBS (200 µM AOAA); for Vmax / kcat: CBL-LDH coupled-coupled assay
T2 construct: purchased GenScript
T2 sequence (P35520 with tags, fused parts or gaps DEL516-525): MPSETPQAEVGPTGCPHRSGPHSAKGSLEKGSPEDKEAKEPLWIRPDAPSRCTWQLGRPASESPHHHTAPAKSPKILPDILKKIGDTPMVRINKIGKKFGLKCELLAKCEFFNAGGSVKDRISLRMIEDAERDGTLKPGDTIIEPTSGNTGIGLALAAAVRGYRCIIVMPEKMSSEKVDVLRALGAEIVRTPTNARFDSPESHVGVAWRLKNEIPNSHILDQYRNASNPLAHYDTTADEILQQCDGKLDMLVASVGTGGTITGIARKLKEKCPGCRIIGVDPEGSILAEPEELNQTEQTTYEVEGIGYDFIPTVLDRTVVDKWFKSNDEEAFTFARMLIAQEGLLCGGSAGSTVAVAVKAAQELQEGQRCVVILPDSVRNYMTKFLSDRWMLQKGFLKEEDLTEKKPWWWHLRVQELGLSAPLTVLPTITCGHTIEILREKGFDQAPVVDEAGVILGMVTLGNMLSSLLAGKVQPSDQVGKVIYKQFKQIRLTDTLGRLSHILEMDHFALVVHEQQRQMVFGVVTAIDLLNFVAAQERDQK
Description: CBS coupled-coupled assay. CBS canonical activity utilizing Ser and Hcy was determined using cystathionine beta-lyase (CBL) and lactate-dehydrogenase (LDH) coupled-coupled assay as described previously with a few modifications. Native L-LDH from rabbit muscle was purchased from Sigma (catalog no. L2500) and recombinant CBL was purchased from Creative Enzymes (catalog no. NATE-1146). In a final volume of 150 µL, the reaction mixture contained 50 mM Tris–HCl pH 8.9, 20 µM PLP, 500 µM NADH, 1.3 µM LDH, 0.1 µM CBL, 0–20 mM Ser (or 0–50 mM Cys) and 500 ng of tScCBS or HsCBS. Assays with HsCBS were carried out in the absence or presence of 500 µM CBS allosteric activator S-adenosylmethionine (SAM). The reaction was triggered by the addition of 2 mM Hcy and the oxidation of NADH to NAD^+ was followed by monitoring the decrease in absorbance at 340 nm over time (ε340 = 6220 M^−1.cm^−1). […] All measurements were performed in triplicates using Tecan Infinite 200 PRO microplate reader. Kinetic data were analyzed using GraphPad Prism software.

HEK293 cells = test: Bioenergetic analysis (Seahorse XFe24 flux analyzer); assay type: cell-based, human
Description: Bioenergetic analysis. The Seahorse XFe24 flux analyzer (Agilent Technologies, Santa Clara, CA, USA) was used to estimate mitochondrial respiration of HEK293 cells. Cells were seeded in Seahorse XFe24 Cell Culture Microplates at density of 15,000 cells/well in a total volume of 200 µl, incubated for 2 h, followed by treatment for 24 h as described above for H2S live imaging. Next day, culture medium was replaced for Seahorse XF DMEM supplemented with 2 mM glutamine, 1 mM pyruvate and 10 mM glucose. The microplate was then incubated in a CO2-free incubator at 37°C for 1 h, to allow temperature and pH equilibration, as recommended by the manufacturer. The assay protocol included two measurements of basal values of oxygen consumption rate (OCR), followed by the injection of 1 µM oligomycin, used to evaluate ATP generation rate. Subsequently, the mitochondrial oxidative phosphorylation uncoupler FCCP (0.2 µM) was added to estimate maximal mitochondrial respiratory capacity. Lastly, 0.5 µM of rotenone and antimycin A (each) were injected to inhibit the electron flux through the complex I and III, respectively, aiming to detect the extra-mitochondrial OCR. Data were analyzed with Wave package (version 2.6; Agilent Technologies, Santa Clara, CA, USA) and GraphPad Prism 8 (GraphPad Software Inc.; San Diego, CA, USA).

Structure (SMILES) | Rate constant k of PLP-AOAA oxime intermediate formation (tScCBS; 20 µM AOAA added to tScCBS, followed at 412 nm) | Reduction of activity catalyzing condensation of Cys and Hcy yielding H2S (HsCBS; absence of SAM) [%] | Reduction of activity catalyzing condensation of Cys and Hcy yielding H2S (HsCBS; presence of SAM) [%] | Effect on condensation of Ser and Hcy (canonical reaction) (HsCBS; HsCBS ± 500 µM SAM inhibited by 200 µM AOAA, 5 mM Ser + 2 mM Hcy) | Bioenergetics parameters (basal respiration, maximal respiration, ATP production) (HEK293 cells; HEK293, 150 µM AOAA, 24 h) | Rate constant k of AOAA displacement from tScCBS by Ser (tScCBS; 1 mM Ser added after 1 h with 20 µM AOAA, changes at 370 nm and 460 nm) [min⁻¹] | Slower formation of PLP-aminoacrylate intermediate compared with PLP-AOAA oxime formation (tScCBS; 1 mM Ser after 20 µM AOAA) | Vmax (HsCBS; HsCBS + SAM) [µmol/h/mg] | kcat (HsCBS; HsCBS + SAM) [s⁻¹] | Vmax (HsCBS; HsCBS – SAM) [µmol/h/mg] | kcat (HsCBS; HsCBS – SAM) [s⁻¹] | Impact on mitochondrial function (HEK293 cells; HEK293, 1, 3 and 10 mM Ser alone, 24 h) | Cellular bioenergetics compared to untreated controls (HEK293 cells; HEK293 inhibited by 150 µM AOAA, supplemented with 1, 3 or 10 mM Ser)
NOCC(=O)O [AOAA, aminooxyacetic acid] | 0.22 min⁻¹ and 0.22 ± 0.05 min⁻¹ | 63 | 71 | not impaired | significant decrease | – | – | – | – | – | – | – | –
N[C@@H](CO)C(=O)O [Ser, serine] | – | – | – | – | – | 0.07 ± 0.01 | approximately 3 × | 156.3 ± 7.6 | 2.7 ± 0.1 | 37.2 ± 1.5 | 0.63 ± 0.06 | did not have any significant impact | correction or normalization
